Measured values from US10670605B2, “Cysteine reactive probes and uses thereof” (The Scripps Research Institute, priority 2015, dated 2020).

Tests used:
Experiment in all cases: Competitive isoTOP-ABPP, cell lysates
Assay type in all cases: binding
[1] = biological target: T1, USP48 C39 (Q86UV5) (Homo sapiens, UniProt Q86UV5); conditions: for isoTOP-ABPP reactivity ratio, Q86UV5_C39: 500 μm; for R value (DMSO/fragment) / isoTOP-ABPP ratio, Q86UV5_C39: 500 μM
T1 sequence (Q86UV5 1-1035): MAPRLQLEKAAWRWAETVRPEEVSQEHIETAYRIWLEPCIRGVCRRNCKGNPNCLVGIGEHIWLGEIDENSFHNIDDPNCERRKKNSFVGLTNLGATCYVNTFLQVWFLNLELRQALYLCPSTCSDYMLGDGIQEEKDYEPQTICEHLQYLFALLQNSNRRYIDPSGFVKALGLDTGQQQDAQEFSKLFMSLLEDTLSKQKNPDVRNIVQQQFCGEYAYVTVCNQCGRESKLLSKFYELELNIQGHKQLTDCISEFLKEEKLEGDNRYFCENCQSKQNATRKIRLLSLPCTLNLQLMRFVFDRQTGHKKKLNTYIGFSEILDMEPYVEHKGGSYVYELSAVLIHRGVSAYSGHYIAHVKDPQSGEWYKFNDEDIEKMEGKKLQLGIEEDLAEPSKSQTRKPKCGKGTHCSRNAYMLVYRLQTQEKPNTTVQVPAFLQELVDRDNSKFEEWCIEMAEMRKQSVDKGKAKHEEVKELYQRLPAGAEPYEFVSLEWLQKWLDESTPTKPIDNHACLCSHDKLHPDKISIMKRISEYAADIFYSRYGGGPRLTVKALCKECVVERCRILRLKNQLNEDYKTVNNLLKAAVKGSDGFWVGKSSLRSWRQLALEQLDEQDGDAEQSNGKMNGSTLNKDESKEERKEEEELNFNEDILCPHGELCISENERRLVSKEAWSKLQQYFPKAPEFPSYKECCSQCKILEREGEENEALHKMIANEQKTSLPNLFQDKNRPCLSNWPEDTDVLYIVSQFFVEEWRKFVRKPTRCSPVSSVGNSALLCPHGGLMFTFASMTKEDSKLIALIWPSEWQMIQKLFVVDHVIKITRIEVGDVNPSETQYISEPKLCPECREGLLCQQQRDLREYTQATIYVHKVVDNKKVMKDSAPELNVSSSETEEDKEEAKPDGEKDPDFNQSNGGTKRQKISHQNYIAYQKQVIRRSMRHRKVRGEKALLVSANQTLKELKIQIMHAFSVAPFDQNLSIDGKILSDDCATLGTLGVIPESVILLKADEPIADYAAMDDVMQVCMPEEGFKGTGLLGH

[2] = biological target: LRBA C1704 (P50851) (Homo sapiens, UniProt P50851); conditions: for isoTOP-ABPP reactivity ratio, P50851_C1704: 500 μm, in-vitro_ramos; for R value (DMSO/fragment) / isoTOP-ABPP ratio, P50851_C1704: 500 μM, invitro, ramos
[3] = biological target: T2, MGMT C145 (P16455) (Homo sapiens, UniProt P16455); conditions: for isoTOP-ABPP ratio (reactivity profile), P16455_C145: 500 μm in-vitro ramos; for isoTOP-ABPP reactivity ratio, P16455_C145: 500 μm, in-vitro_ramos
T2 sequence (P16455 1-207): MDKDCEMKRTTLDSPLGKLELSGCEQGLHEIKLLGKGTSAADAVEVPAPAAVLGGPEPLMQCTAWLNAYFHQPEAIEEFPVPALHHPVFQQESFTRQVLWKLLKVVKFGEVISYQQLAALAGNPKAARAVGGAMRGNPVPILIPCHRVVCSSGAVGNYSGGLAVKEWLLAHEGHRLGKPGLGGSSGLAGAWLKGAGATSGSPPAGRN

[4] = biological target: T3, IRF8 C306 (Q02556) (Homo sapiens, UniProt Q02556); conditions: for isoTOP-ABPP reactivity ratio, Q02556_C306: 500 μm, in-vitro_ramos
T3 sequence (Q02556 1-426): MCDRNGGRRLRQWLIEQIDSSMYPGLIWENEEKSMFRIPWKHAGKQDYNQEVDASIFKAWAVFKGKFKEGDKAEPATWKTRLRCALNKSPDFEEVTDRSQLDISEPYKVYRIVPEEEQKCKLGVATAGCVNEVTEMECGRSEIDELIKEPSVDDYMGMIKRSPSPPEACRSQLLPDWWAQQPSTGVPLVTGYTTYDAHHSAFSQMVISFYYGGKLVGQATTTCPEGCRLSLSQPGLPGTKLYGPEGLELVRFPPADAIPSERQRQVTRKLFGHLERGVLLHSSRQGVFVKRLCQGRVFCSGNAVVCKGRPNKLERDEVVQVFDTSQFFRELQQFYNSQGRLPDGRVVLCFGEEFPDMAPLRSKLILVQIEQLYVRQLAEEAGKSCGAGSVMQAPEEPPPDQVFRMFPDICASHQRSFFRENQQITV

Chain of LRBA C1704 (P50851) (P50851 whole entry, the tested form may be a part): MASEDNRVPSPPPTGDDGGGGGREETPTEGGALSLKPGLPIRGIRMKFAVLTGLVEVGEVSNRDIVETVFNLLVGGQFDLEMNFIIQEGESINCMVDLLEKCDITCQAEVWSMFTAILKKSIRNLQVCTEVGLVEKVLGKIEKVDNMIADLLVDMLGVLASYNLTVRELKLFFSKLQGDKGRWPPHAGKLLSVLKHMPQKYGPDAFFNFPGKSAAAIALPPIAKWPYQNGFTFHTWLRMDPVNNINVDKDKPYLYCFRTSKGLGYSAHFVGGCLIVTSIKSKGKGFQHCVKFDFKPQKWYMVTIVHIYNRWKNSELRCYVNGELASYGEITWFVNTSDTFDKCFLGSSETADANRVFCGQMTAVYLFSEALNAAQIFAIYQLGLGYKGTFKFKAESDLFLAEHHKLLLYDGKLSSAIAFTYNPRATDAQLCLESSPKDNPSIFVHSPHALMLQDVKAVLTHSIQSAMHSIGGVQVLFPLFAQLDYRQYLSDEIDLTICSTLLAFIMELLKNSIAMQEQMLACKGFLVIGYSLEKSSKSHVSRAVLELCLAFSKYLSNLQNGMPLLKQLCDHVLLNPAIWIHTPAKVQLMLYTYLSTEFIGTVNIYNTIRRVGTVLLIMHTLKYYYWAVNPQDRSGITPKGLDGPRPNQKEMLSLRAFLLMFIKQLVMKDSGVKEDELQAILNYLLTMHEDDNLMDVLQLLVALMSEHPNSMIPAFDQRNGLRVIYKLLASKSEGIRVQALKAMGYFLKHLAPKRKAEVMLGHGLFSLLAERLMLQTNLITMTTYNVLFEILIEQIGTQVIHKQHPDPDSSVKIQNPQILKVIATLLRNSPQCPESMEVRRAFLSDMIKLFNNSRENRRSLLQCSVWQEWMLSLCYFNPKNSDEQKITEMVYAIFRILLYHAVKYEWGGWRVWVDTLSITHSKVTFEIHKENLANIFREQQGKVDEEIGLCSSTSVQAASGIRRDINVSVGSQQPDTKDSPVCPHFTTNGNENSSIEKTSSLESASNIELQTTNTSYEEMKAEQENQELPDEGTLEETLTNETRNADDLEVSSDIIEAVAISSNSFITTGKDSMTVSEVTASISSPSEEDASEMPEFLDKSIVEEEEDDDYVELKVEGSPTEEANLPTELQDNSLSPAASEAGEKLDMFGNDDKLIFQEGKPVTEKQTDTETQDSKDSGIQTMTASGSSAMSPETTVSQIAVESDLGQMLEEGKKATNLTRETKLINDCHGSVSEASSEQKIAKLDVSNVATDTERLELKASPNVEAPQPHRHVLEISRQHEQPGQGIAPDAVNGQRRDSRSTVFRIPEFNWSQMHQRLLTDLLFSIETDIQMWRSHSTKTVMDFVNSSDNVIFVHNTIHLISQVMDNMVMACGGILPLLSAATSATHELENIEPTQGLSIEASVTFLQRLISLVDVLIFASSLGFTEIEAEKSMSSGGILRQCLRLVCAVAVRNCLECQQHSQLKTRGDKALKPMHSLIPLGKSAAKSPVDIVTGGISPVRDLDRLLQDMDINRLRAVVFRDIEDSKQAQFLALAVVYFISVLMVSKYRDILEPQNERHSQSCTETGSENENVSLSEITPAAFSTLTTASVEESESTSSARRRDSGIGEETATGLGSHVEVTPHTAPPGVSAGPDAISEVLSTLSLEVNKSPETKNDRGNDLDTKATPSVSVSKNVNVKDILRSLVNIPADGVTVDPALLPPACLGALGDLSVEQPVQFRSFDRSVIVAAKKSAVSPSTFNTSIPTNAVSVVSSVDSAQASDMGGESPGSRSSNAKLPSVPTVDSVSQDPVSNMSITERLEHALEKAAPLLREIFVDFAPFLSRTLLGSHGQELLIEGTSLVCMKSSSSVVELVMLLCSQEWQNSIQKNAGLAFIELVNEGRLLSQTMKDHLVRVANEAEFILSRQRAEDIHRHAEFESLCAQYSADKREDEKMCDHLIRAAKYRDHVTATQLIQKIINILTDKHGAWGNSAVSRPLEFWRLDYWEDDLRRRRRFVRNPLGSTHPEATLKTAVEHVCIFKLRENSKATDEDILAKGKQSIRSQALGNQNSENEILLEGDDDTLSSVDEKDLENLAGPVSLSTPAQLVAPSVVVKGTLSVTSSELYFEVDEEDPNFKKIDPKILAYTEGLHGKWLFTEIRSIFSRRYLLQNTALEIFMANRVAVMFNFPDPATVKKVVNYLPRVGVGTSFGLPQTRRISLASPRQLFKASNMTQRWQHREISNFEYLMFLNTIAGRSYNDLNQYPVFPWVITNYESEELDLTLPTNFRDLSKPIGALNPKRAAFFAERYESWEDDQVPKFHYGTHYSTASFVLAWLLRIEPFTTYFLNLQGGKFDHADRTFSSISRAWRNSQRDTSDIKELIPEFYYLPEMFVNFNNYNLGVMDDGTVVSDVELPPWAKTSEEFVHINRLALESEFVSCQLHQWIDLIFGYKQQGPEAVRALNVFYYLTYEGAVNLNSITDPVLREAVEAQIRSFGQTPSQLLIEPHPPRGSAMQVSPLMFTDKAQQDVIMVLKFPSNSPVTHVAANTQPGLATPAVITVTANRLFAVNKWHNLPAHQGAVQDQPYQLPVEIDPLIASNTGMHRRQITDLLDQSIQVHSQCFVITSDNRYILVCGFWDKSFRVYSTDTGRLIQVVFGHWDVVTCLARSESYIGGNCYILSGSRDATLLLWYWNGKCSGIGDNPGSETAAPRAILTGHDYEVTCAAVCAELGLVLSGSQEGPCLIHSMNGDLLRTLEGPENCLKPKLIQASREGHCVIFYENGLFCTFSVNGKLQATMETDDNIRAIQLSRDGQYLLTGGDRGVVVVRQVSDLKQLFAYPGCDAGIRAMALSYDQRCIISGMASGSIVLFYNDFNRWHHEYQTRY

C=CC(=O)Nc1cc(F)c(N2CCN(C(=O)OC(C)(C)C)CC2)c(F)c1 [compound 38]
isoTOP-ABPP reactivity ratio, Q86UV5_C39 ([1]; in-vitro_ramos_231): 3.7 | isoTOP-ABPP reactivity ratio, P50851_C1704 [2]: 2.5

O=C(CCl)Nc1cc(C(F)(F)F)cc(C(F)(F)F)c1 [compound 3]
R value (DMSO/fragment) ([1]; in vitro, MDA-MB-231): 1.8 | R value (DMSO/fragment) ([1]; invitro, ramos): 1.5 | R value (DMSO/fragment) ([3]; 500 μM, invitro, ramos): 20.0 | R value (DMSO/fragment) ([4]; 500 μM, invitro, ramos): 5.6 | R value (DMSO/fragment) [2]: 3.6

C=CC(=O)N(c1ccccc1)c1ccc(Br)cc1 [compound 5]
isoTOP-ABPP ratio, Q86UV5_C39 ([1]; invitro, ramos): 1.2 | isoTOP-ABPP ratio, P16455_C145 ([3]; 500 μM, invitro, ramos): 2.0 | isoTOP-ABPP ratio, Q02556_C306 ([4]; 500 μM, invitro, ramos): 2.6 | isoTOP-ABPP ratio, P50851_C1704 [2]: 3.6

C=CC(=O)N(Cc1cccnc1)c1ccc(Oc2ccccc2)c(C(F)(F)F)c1 [compound 15]
isoTOP-ABPP ratio (reactivity profile), Q86UV5_C39 ([1]; 500 μm in-vitro ramos): 0.7 | isoTOP-ABPP ratio (reactivity profile), P16455_C145 [3]: 1.3 | isoTOP-ABPP ratio (reactivity profile), Q02556_C306 ([4]; 500 μm in-vitro ramos): 2.1 | isoTOP-ABPP ratio (reactivity profile), P50851_C1704 ([2]; 500 μm in-vitro ramos): 1.9

COc1ccc2c(c1)CCCN2C(=O)CCl [compound 2]
R value (DMSO/fragment) ([1]; invitro, ramos): 7.1 | R value (DMSO/fragment) ([3]; 500 μM, invitro, ramos): 20.0 | R value (DMSO/fragment) [2]: 3.4

CCN(CC)c1ccc(S(N)(=O)=O)cc1NC(=O)CCl [compound 30]
isoTOP-ABPP reactivity ratio, Q02556_C306 [4]: 2.0

C=CC(=O)N1CCC(c2noc3ccc(F)cc23)CC1 [compound 37]
isoTOP-ABPP reactivity ratio, Q86UV5_C39 ([1]; in-vitro_ramos): 0.7 | isoTOP-ABPP reactivity ratio, P50851_C1704 [2]: 1.0

CC(Cl)C(=O)Nc1cc(C(F)(F)F)cc(C(F)(F)F)c1 (stereo not shown) [compound 25]
isoTOP-ABPP ratio (reactivity profile), Q86UV5_C39 ([1]; 500 μm in-vitro ramos_231): 1.0 | isoTOP-ABPP ratio (reactivity profile), P50851_C1704 ([2]; 500 μm in-vitro ramos_231): 0.8

N#C/C(=C\c1cc(C(F)(F)F)cc(C(F)(F)F)c1)C(N)=O [compound 23]
isoTOP-ABPP ratio (reactivity profile), Q86UV5_C39 ([1]; 500 μm in-vitro ramos): 1.3 | isoTOP-ABPP ratio (reactivity profile), P16455_C145 [3]: 1.0 | isoTOP-ABPP ratio (reactivity profile), P50851_C1704 ([2]; 500 μm in-vitro ramos): 3.4

CC(C)CCOCCNC(=O)CCl [compound 27]
isoTOP-ABPP ratio (reactivity profile), Q86UV5_C39 ([1]; 500 μm in-vitro ramos_231): 0.8 | isoTOP-ABPP ratio (reactivity profile), P16455_C145 [3]: 20.0 | isoTOP-ABPP ratio (reactivity profile), Q02556_C306 ([4]; 500 μm in-vitro ramos_231): 1.1 | isoTOP-ABPP ratio (reactivity profile), P50851_C1704 ([2]; 500 μm in-vitro ramos_231): 1.1

C=CC(=O)Nc1cc(C)c(Br)cc1C [compound 40]
isoTOP-ABPP reactivity ratio, Q86UV5_C39 ([1]; in-vitro_ramos): 1.6 | isoTOP-ABPP reactivity ratio, P16455_C145 [3]: 1.0 | isoTOP-ABPP reactivity ratio, Q02556_C306 [4]: 0.9

O=C(CCl)Nc1ccccc1C1CCCCCC1 [compound 35]
isoTOP-ABPP reactivity ratio, Q86UV5_C39 ([1]; in-vitro_ramos): 1.0 | isoTOP-ABPP reactivity ratio, Q02556_C306 [4]: 1.2 | isoTOP-ABPP reactivity ratio, P50851_C1704 [2]: 1.1

O=C(CCl)N1CCN(S(=O)(=O)c2ccccc2F)CC1 [compound 10]
isoTOP-ABPP ratio, Q86UV5_C39 ([1]; invitro, 231): 2.5 | isoTOP-ABPP ratio, Q02556_C306 ([4]; 500 μM, invitro, ramos): 3.6 | isoTOP-ABPP ratio, P50851_C1704 [2]: 0.8

O=C(CCl)N1CCN(CC(=O)N2CCOCC2)CC1 [compound 29]
isoTOP-ABPP ratio (reactivity profile), Q86UV5_C39 ([1]; 500 μm in-vitro ramos_231): 1.2 | isoTOP-ABPP ratio (reactivity profile), P16455_C145 [3]: 20.0

C=CC(=O)N(Cc1cccnc1)c1cc(C(F)(F)F)cc(C(F)(F)F)c1 [compound 31]
isoTOP-ABPP reactivity ratio, P16455_C145 [3]: 1.0 | isoTOP-ABPP reactivity ratio, P50851_C1704 [2]: 1.4
